Laboratory results reported in US9750705B2, “Agents useful for treating obesity, diabetes and related disorders” (The Regents of the University of California, priority 2012, dated 2017).
Where a name gives a salt, the structure may show the parent alone.

Columns and labels:
[1] = test system: insulin-dependent activation of Akt and ERK in FL83B cells; assay: High-throughput in-cell western blot (ICWB) screen for insulin sensitizers: insulin-dependent phospho-Akt versus phospho-Erk; format: cell-based, mouse; settings: for rank in the insulin-sensitizer screen: screen of 1689 molecules
Method: Drugs were screened by in-cell western blot (ICWB) for their ability to stimulate phospho-Akt activation in the presence of trace or 10 nM insulin (FIG. 4A). Cells in wells were treated with drugs, and the activity (phosphorylation) of Akt was determined by a phospho-Akt specific antibody. In FIG. 4A, low insulin was given and drugs a, b, c, stimulated Akt activation. In FIG. 4B, 10 nM insulin was given and a, b, and c stimulated signaling over background, and d and e inhibited. […] Drugs were primarily screened for their ability to promote insulin-dependent stimulation of (phospho) Akt, then secondarily screened for lack of activity to stimulate (phospho) Erk, or a high Akt/Erk ratio. Such drugs are expected to cause insulin sensitivity, resistance to obesity, and longevity. Some drugs having these desired characteristics are Shc inhibitors.
FL83B cells were seeded on 384 well plates, 10,000 cells per well in F-12 media supplemented with 10% FBS and 25 mM glucose; 48 hours later the media was replaced with F-12, 25 mM glucose without FBS for sixteen hours; cells were supplemented with assigned drug at desired concentration for 1 hour in duplicate and then, the cells were stimulated with desired concentration of insulin for ten minutes for Akt activation and fifteen minutes for ERK activation measurements. After that time the media was removed and replaced with fixing solution of 5% Formaldehyde in PBS, pH=7.4, 30 minutes later, the fixing solution was replaced with the permeabilization buffer, 0.1% triton X100 in PBS for 40 minutes. […] After the incubation with the secondary antibodies for one hour at room temperature, the wells were washed again two times with the 0.1% tween-20 in PBS and scanned on the Li-Cor Odyssey infrared scanner; images were analyzed with the Li-Cor Odyssey software. […] Phospho-Akt, Phospho-ERK signals than were normalized by tubulin signals in each well and the densitometric results were analyzed to identify drugs which improved metabolic insulin sensitivity without inducing the mitogenic ERK activation. […]

[2] = test system: phospho-Erk in FL83B cells; assay: Western blot of phospho-Erk; format: cell-based, mouse; settings: drug 1 hour, then insulin
Method: As explained above and in Example 4, Western blots of phospho-Akt and phospho-Erk are a more accurate and precise and quantitative measure of Akt phosphorylation than ICWB measurements. Insulin-dependent phospho-Akt is a direct measurement of insulin sensitivity, and we expect that Shc inhibitors will stimulate phospho-Akt more than phospho-Erk. All of the drugs listed in FIG. 5A stimulated insulin-dependent phospho-Akt at some concentration. Method. Mouse liver cells FL83B were plated at density of 400.000 cells per well of 6 well plate and cultivated for 48 hours, media was changed to DMEM, 25 mM glucose serum free and 16 hours later the cells were treated with drug at the indicated concentration for one hour. Control wells were treated with the vehicle (DMSO), in certain control wells the metabolic (Akt) insulin signaling was blocked with wortmannin. The cells were induced with indicated concentration of insulin for 10 minutes, total protein was extracted and the Western Blots were performed with indicated antibody as described above. Mouse liver cells FL83B were plated at density of 400.000 cells per well of 6 well plate and cultivated for 48 hours, media was changed to DMEM, 25 mM glucose serum free and 16 hours later the cells were treated with drug at the indicated concentration for one hour. […]

phospho-Shc = assay: Western blot of phospho-Shc (Shc activation); format: cell-based; settings: dose response
Method: Assays to identify compounds useful for preventing, reducing, delaying or inhibiting symptoms of impaired insulin sensitivity, glucose intolerance or obesity can be performed in vitro. Candidate agents can be contacted with a population of test cells in the presence of insulin (e.g., 1 nM, 5 nM, 10 nM, 100 nM or more). An agent that prevents, reduces, delays or inhibits one or more symptoms of impaired insulin sensitivity, glucose intolerance or obesity increases the ratio of levels of phospho-Akt-1 over phospho-Erk relative to a control ratio. The increase in ratio of levels of phospho-Akt-1 over phospho-Erk can be determined in comparison to a control population of cells that have not been contacted with insulin or have been contacted with a low concentration of insulin (e.g., less than 0.1 nM) or a population of cells contacted with insulin but not with the compound under test. Ratio of levels of phospho-Akt-1 over phospho-Erk can be determined using a Western blot among other methods. Inhibition of Shc activity can be quantitatively measured by assaying the reduction of stimulatory Shc phosphorylation, using a phospho-Shc specific antibody. Inhibition of Shc expression can be measured using a Western blot. […]

[3] = Insulin tolerance test (ITT) in mice; format: in vivo
[4] = test system: phospho-Akt in FL83B cells; assay: Western blot of insulin-dependent phospho-Akt; format: cell-based, mouse; settings: for insulin-dependent phospho-Akt (P-Akt) signaling/activation: drug 1 hour, insulin 10 minutes
Method: As explained above and in Example 4, Western blots of phospho-Akt and phospho-Erk are a more accurate and precise and quantitative measure of Akt phosphorylation than ICWB measurements. Insulin-dependent phospho-Akt is a direct measurement of insulin sensitivity, and we expect that Shc inhibitors will stimulate phospho-Akt more than phospho-Erk. All of the drugs listed in FIG. 5A stimulated insulin-dependent phospho-Akt at some concentration. Method. Mouse liver cells FL83B were plated at density of 400.000 cells per well of 6 well plate and cultivated for 48 hours, media was changed to DMEM, 25 mM glucose serum free and 16 hours later the cells were treated with drug at the indicated concentration for one hour. Control wells were treated with the vehicle (DMSO), in certain control wells the metabolic (Akt) insulin signaling was blocked with wortmannin. The cells were induced with indicated concentration of insulin for 10 minutes, total protein was extracted and the Western Blots were performed with indicated antibody as described above. […]

[5] = Basal blood glucose in mice after daily drug administration; format: in vivo; settings: 2.5 mg/kg I.P. for 4 days
Method: Groups of age/sex matched mice of Control and ShcKO genotypes were food deprived for four hours and challenged with I.P. injection of insulin, and glucose concentration was determined in blood exactly at indicated time-points. Decrease and recovery of blood glucose was calculated as a % of basal level (the time-point before insulin injection). Basal levels of glucose were measured in triplicate for each mouse. For the GTT, the same groups of mice were fasted during fourteen hours and challenged with glucose injection I.P., analogously the blood glucose concentrations were measured.
Groups of mice, ten for the experimental drug treatment and 14 for the placebo treatment were subject for I.P. administration of a drug or placebo solutions daily during four days. Acarbose, a known drug which decreases blood glucose concentration was used as a control. The insulin tolerance test, ITT was performed on the mice as described previously, in Example 2.

| Structure (SMILES) | rank in the insulin-sensitizer screen [1] | Erk activation [2] | phospho-Shc (Shc activation) (phospho-Shc) | insulin sensitivity in-vivo (ITT) ([3]; 2.5 mg/kg I.P. for 4 days) | P-Akt/P-Erk ratio ([4]; Western blot) | insulin-dependent phospho-Akt (P-Akt) signaling/activation [4] | basal blood glucose [5] | insulin sensitivity in vivo (ITT) ([3]; PO, 20 and 50 mg/kg) | P-Akt/P-Erk ratio in the primary screen ([1]; ICWB, FL83B cells) |
| --- | --- | --- | --- | --- | --- | --- | --- | --- | --- |
| CN(C)C(=N)N=C(N)N [metformin, metformin hydrochloride] | top 35 out of 1689 | – | – | – | – | – | – | – | – |
| COc1cc2ncnc(Nc3ccc(Oc4ccccc4)cc3)c2cc1OC [Src I-1] | top 35 out of 1689 | decreased Erk activation | inhibited phospho-Shc activation in dose-dependent manner | increased insulin sensitivity in-vivo | increasing the P-Akt/P-Erk ratio | stimulates insulin-dependent P-Akt signaling | significantly decreased basal blood glucose | – | – |
| COC1=C(OC)C(=O)C(CCCCCCCCCCO)=C(C)C1=O [idebenone] | – | – | decreased phospho-Shc in a dose-dependent manner | – | – | increased insulin-dependent phospho-Akt activation in a dose-dependent manner | – | increased insulin sensitivity in vivo | increased P-Akt/P-Erk ratio |
